The half-life is the time in which the quantity being followed falls by half.

Residues, ends and D or L forms follow the SMILES beside them.

The values that follow come from US20230139826A1 (NONO INC., priority 2020, published 2023).

In one data set the target is plasmin (Homo sapiens, UniProt P00747). As for the experimental part: (A) LC/MS spectrum of nerinetide after incubation with plasmin in PBS. 10 uL aliquots of nerinetide (18 mg/mL) and plasmin (1 mg/mL) were incubated in 500 uL tubes of phosphate-buffered saline at 37 C for 5 min and the reaction stopped by cooling to −80 C until tested. […] (B, C) In-vitro effect of rt-PA on nerinetide content in rat (B) and human (C) plasma. Nerinetide was spiked into the plasma samples at t=0 at a concentration of 65 ug/ml, whereas alteplase (rt-PA) was administered as a 60 min infusion at the indicated concentration (D, E) In-vivo effect of the simultaneous administration of nerinetide and rt-PA on Cmax (D) and AUC (E) in the rat. The nerinetide bolus and alteplase (60 min infusion) were started simultaneously through two separate intravenous lines. Symbols represent mean±SD. […] […] (SEQ ID NO:3) (Full-length NA-1, undigested), […] […] (SEQ ID NO:8), […] […] (SEQ ID NO:10).
Chain of plasmin (P00747 581-810 limits assumed, species assumed): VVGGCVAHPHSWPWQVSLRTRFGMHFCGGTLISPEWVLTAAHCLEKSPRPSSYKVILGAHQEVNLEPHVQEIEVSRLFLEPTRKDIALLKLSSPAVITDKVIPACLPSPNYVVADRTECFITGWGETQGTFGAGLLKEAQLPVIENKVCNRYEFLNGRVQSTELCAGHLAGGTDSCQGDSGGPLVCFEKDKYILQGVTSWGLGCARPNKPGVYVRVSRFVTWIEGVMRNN
Chain of plasmin (P00747 97-580 partner limits assumed, species assumed): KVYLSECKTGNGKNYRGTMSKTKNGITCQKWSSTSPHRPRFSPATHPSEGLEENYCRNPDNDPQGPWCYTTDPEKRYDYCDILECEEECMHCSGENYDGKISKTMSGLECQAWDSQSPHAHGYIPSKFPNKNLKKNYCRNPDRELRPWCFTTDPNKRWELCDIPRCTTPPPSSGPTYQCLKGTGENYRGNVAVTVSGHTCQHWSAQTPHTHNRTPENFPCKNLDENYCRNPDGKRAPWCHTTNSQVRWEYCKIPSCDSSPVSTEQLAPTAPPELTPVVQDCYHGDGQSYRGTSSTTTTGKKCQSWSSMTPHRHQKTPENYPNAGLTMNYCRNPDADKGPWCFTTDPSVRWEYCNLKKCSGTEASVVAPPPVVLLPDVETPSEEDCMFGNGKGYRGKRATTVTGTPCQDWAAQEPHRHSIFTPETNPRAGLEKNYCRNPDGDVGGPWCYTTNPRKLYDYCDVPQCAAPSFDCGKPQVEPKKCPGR
Direct ELISA of the indicated biotinylated peptides to the PDZ2 domain of PSD-95. […] Symbols indicate the mean±SD of triplicate experiments. […] (B). […] E,F. Time course of nerinetide or D-TAT-L-2B9c content in rat plasma (E) and human plasma (F) during a challenge with tenecteplase (TNK; 37.5 ug/ml or 6.25 ug/ml, respectively). […] (repeated measures two-way ANOVA with a post hoc Sidak's multiple comparisons test, *P<0.01). Symbols are means±SD. […]

Data set [1] concerns embolic middle cerebral artery occlusion (eMCAO). In words: Rat embolic middle cerebral artery occlusion model with alteplase reperfusion. The format is in vivo, Sprague-Dawley rats. As for the experimental part:
To test this, male Sprague-Dawley rats (10-12 weeks old; 270-310 g; Charles River, Montreal, QC, Canada) were subjected to embolic middle cerebral artery occlusion (eMCAO), produced by the introduction of an autologous blood thrombus into the middle cerebral artery. Reperfusion was achieved by treatment with intravenous alteplase at a total dose of 5.4 mg/kg beginning at 90 minutes after ischemia onset. Alteplase was administered using the human injection protocol in which 10% of the total dose is given as a bolus, with the remainder 90% of the dose being given over a 60-minute infusion. […] This dose was chosen because in pilot studies, higher doses of alteplase (10× human dose) produced unacceptable mortality rates due to hemorrhagic conversions of strokes. Nerinetide was administered either 30 minutes prior to, or concurrently with, the start of the alteplase administration (FIG. 5A) at a dose of 7.6 mg/kg. […] Infarct volumes, hemispheric swelling and neurological scores were evaluated at 24 hours.
Male Sprague-Dawley rats were subjected to eMCAO as already described. Nerinetide (7.6 mg/kg) or D-Tat-L-2B9c (7.6 mg/kg) were given as bolus injections at 60 minutes. Alteplase (5.4 mg/kg over 60 min) was also started at 60 min after eMCAO, concurrently with the active agent that inhibits PSD-95. Neurological scoring, infarct volume, and hemispheric swelling were assessed at 24 hours (FIG. 8A).
The studies were designed to have 80% power to detect a 40% absolute difference between control and treatment groups at p=0.05. Animal randomization, drug allocation and treatment drug preparation were performed by a research associate not directly involved with surgical or outcome assessment. Nerinetide and D-Tat-L-2B9c were freshly prepared at a concentration of 7.6 mg/mL in 500 uL aliquots. Alteplase was prepared from lyophilized drug and, like matching placebo, stored in identical glass tubes. Drugs were kept at 4° C. until 10 minutes prior to use. The surgeon and the investigators responsible for the surgery, stroke volume measurement, behavioural assessment and statistical analysis were blinded to treatment allocation.

Data set [2] can be described thus: Plasma half-life in humans. The format is in vivo. Particulars: intravenous, 2.6 mg/kg, human, human equivalent concentrations.
Data set [3] is described as follows: In-vitro peptide degradation assay in human plasma with rt-PA or TNK.
Method: To determine nerinetide stability in the presence of rt-PA in plasma, we use an in-vitro peptide content analysis by HPLC. In brief, Nerinetide or D-Tat-L-2B9c were spiked into rat or human plasma at a concentration of 65 ug/ml. rt-PA was added after the baseline time-point was collected, at the specified concentrations. rt-PA administration followed the clinical dosing approach [10% bolus dose followed by 60-mins infusion (90% of the dose)], using a Harvard apparatus pump. Sample collection following IV bolus was performed at 5 min, 15 min, 30 min and 45 min post-dose. At each time point, approximately 100 uL of plasma was collected from each vial using a fresh syringe. Plasma was then collected and stored at -80° C. until analyzed.
Nerinetide or D-Tat-L2B9c was extracted by precipitation with 1M perchloric acid. All analyses were performed on an Agilent 1260 Infinity Quaternary LC System (Agilent Technologies, Santa Clara, Calif., USA) and on a 25 cm [YMAA12S052546WT] C-18 RP-HPLC column (Agilent Technologies, Santa Clara, Calif., USA). The column was equilibrated with 10% acetonitrile with 0.1% TFA at 40° C. The eluent flow was 1.5 ml/min (gradient from 10% to 35% acetonitrile in 0.1% TFA) The UV trace was recorded at 220 nm. Concentrations of nerinetide or D-Tat-L-2B9c were derived from calibration standards obtained by spiking the agent into plasma.
Where [4] appears, read: 30-minute dose separation between nerinetide and alteplase.

For the molecule `CC[C@H](C)[C@H](NC(=O)[C@H](CO)NC(=O)[C@H](CO)NC(=O)[C@H](CC(C)C)NC(=O)[C@H](CCCCN)NC(=O)[C@H](CCCN=C(N)N)NC(=O)[C@H](CCCN=C(N)N)NC(=O)[C@H](CCCN=C(N)N)NC(=O)[C@H](CCC(N)=O)NC(=O)[C@H](CCCN=C(N)N)NC(=O)[C@H](CCCN=C(N)N)NC(=O)[C@H](CCCCN)NC(=O)[C@H](CCCCN)NC(=O)[C@H](CCCN=C(N)N)NC(=O)CNC(=O)[C@@H](N)Cc1ccc(O)cc1)C(=O)N[C@@H](CCC(=O)O)C(=O)N[C@@H](CO)C(=O)N[C@@H](CC(=O)O)C(=O)N[C@H](C(=O)O)C(C)C` [Nerinetide] (H-YGRKKRRQRRRKLSSIESDV-OH), the “stability alone in phosphate buffered saline” value at plasmin is on record as “stable”. Besides, in data set [1] (setting [4]), the hemispheric swelling entry was “reducing hemispheric swelling” and the neurological scores entry was “improving neurological scores”. Besides, the “reduction of infarction volume” value in data set [1] (nerinetide alone 7.6 mg/kg, 60 minutes after eMCAO, 24 hours) came out at 59.2%. Besides, the infarction volume in data set [1] (nerinetide alone 60 minutes after eMCAO (FIG. 5B), control 427±27) came to 175±40 mm^3. The same molecule showed an infarction volume in data set [1] (nerinetide alone 60 minutes after eMCAO, absence of alteplase (FIG. 8B), control 458±39) of 296±66 mm^3. This molecule displayed an infarct volume reduction in data set [1] (nerinetide at 60 minutes followed by alteplase 30 minutes later) of 70%. For the same molecule, the “effect on infarction volume when given concurrently with alteplase” value in data set [1] (peptide 7.6 mg/kg and alteplase 5.4 mg/kg both at 60 min after eMCAO) is recorded as “eliminated completely”. The half-life in data set [2] was 5 to 10 min. For the same molecule, the “elimination in human plasma with tenecteplase (TNK)” value in data set [3] (TNK 6.25 ug/ml) was “rapid elimination”. Also, in data set [3] (absence of alteplase), the “stability alone in human plasma” value is “stable”. Also, the “degradation in human plasma with alteplase” value in data set [3] (rt-PA 135 ug/ml) is listed as “rapid degradation”.
